The subject of data set [1] is porcine primary RPE cells. Details: method as in PMID 27992460. The conditions noted are these: at 20 µM; cited from earlier work.
Data set [2] deals with Abca4 −/− Rdh8 −/− mice. Further details: method as in PMID 27992460. The conditions noted are these: treated orally for three months; cited from earlier work.
For data set [3], the system named is Balb-c male mice photoreceptors. Details: method as in PMID 29541735. The conditions noted are these: cited from earlier work.
In data set [4] the test system is RPE cells. The conditions noted are these: 100 µM; cited from earlier work.
Data set [5] in a line: Cytotoxicity of lipophenols (MTT cell viability, 24 h). The data set is classed as cell-based, human. The conditions noted are these: human, ARPE-19 cells; for CC50 at 24 h: serum free medium, 0–160 µM, MTT, mean ± SD, n ≥ 3, read-out: ARPE-19 CC50 (concentration of lipophenol killing 50% of ARPE-19 cells). How it is done: (§1) Cell viability was determined by MTT colorimetric assay. The cells were incubated for 2 h with MTT reagent (0.5 mg/mL). During this incubation time, dehydrogenases of the living cells reduce the MTT to insoluble purple formazan. The absorbance at 570 nm and 655 nm of individual wells of the cell was measured using a microplate reader (BioRad 550, USA). […] The percentage of the viable cells was calculated as [(OD570 sample − OD655 sample)/(OD570 control − OD655 control)] × 100%.
(§2) ARPE-19 cells were plated into 96-well plates (4 × 10^4 cells/well) and cultured for 24 h to reach confluence before lipophenol treatment. The cell cultures were treated with serum free medium containing the lipophenols at different concentrations (0–160 µM) for 24 h. Control cells were incubated with DMSO (0.2%). The viability of the cells was determined using MTT colorimetric assay as described above and expressed in percentage of viable cells normalized with control conditions in the absence of lipophenols. When a dose-dependent toxicity was observed, CC50 was calculated.

Data set [6] has as its system ARPE-19 cells. The data set is described as above. The data set is classed as cell-based, human. The conditions noted are these: for Toxicity in ARPE-19 cells (in words): tested 0–160 µM. As to the method: as §1, §2
In data set [7] the test system is ARPE-19 cells. Put plainly: Protection against ROS production (DCFDA probe, H2O2 stress). The data set is classed as cell-based, human. The conditions noted are these: for IC50: H2O2 600 µM for 4 h, DCFDA, mean ± SD, n ≥ 3, read-out: ROS production IC50 (concentration needed to inhibit 50% of the ROS induced by H2O2). How it is done:
ROS activity was measured in ARPE-19 cells with dichlorofluorescein diacetate (DCFDA) reagent. DCFDA is deacetylated by cellular esterases to dichlorofluorescein (DCFH), which can then be oxidized by ROS into the fluorophore 2′,7′–dichlorofluorescein (DCF). ARPE-19 cells were plated into black, optically clear bottom 96-well plates (4 × 10^4 cells/well) and cultured for 24 h to reach confluence before the drug treatment. The cell cultures were incubated with 2 µM of DCFDA for 45 min in DMEM/F12 medium without phenol red + 1% FBS. The cells were rinsed and incubated with the medium containing lipophenols at different concentrations (0–80 µM) for 1 h. Then, H2O2 was added to a final concentration of 600 µM for 4 h, followed by the measurement of DCF production by fluorescence spectroscopy with excitation wavelength at 485 nm and emission wavelength at 535 nm. […] Control cells were incubated with DMSO (0.2%) ± DCFDA ± H2O2. The percentage of ROS produced was calculated as [(fluorescence of sample)/(fluorescence of control)] × 100%. The results are expressed in percentage of ROS produced normalized with control conditions in the absence of lipophenol and presence of stressor. When a dose-dependent inhibition was observed, IC50 was calculated.

Data set [8] has as its system ARPE-19 cells. Put plainly: Protection against photo-oxidized A2E toxicity (MTT cell viability). The settings on record: for IC50: 1 h pre-treatment, A2E 20 µM 6 h, blue light 30 min, mean ± SD, n ≥ 3, read-out: Protection against A2E toxicity IC50 (concentration needed to inhibit 50% of the toxicity induced by photo-oxidized A2E); for Decrease of the toxic effect of A2E: at 8 µM; for Cells protected from photo-oxidized A2E: at higher concentrations; for Maximum cell viability under photo-oxidized A2E: between 20 and 40 µM; for Potency against photo-oxidized A2E relative to natural quercetin: ratio of IC50. The format is cell-based, human. As to the method: as §1
ARPE-19 cells were plated into 96-well plates (4 × 10^4 cells/well) and cultured for 24 h to reach confluence before lipophenol treatment. The cell cultures were treated with serum free DMEM/F12 medium without phenol red containing lipophenols at different concentrations (0–80 µM) for 1 h. Then A2E was added to a final concentration of 20 µM for 6 h before rinsing with medium. Control cells were incubated with DMSO (0.2%) with or without A2E. The cells were exposed to intense blue light (4600 LUX) for 30 min to induce phototoxicity of A2E and incubated at 37 °C. The cell viability was determined 16–20 h later using a MTT colorimetric assay. Results are expressed in percentage of viable cells normalized with control conditions in the absence of lipophenols and stressor. When a dose-dependent efficiency was observed, IC50 was calculated.

The test system of data set [9] is ARPE-19 cells. Details: method as in PMID 27659166. The settings on record: 60 µM, cells treated twice for 3 days before A2E stress; cited from earlier work.
Where [10] appears, read: Homo sapiens, ARPE-19, 1 h pre-incubation.

Some results are limits rather than exact numbers.

Usually melting point stands for the temperature, or range, at which the solid turns liquid. One may read the viability as a read-out of living cells in per cent, often relative to untreated cells.

Take `CC(/C=C/C=C(C)/C=C/C(=O)O)=C\C=C\C=C(C)\C=C\C=C(C)\C=C\C(=O)O` (stereo in doubt) [Norbixin]: the “Protection against A2E illuminated” value in data set [1] was 90–100%. In addition, in data set [2], the “Effect on A2E in mice (in words)” value was “able to reduce A2E”.
`O=c1c(O[C@@H]2OC[C@H](O)[C@H](O)[C@H]2O)c(-c2ccc(O)c(O)c2)oc2cc(O)cc(O)c12` [3-quercetin glycoside, Quercetin-3-O-α-L-arabinopyranoside]: in data set [3], the “Protection of photoreceptors against blue light damages (in words)” value was “protect”. In addition, the “Cell viability of RPE cells” value in [4] was ~ 90%.
`CC/C=C\C/C=C\C/C=C\C/C=C\C/C=C\C/C=C\CCC(=O)Oc1c(-c2ccc(O)c(O)c2)oc2cc(O)cc(O)c2c1=O` [Quer-3-DHA (15)]: the CC50 at 24 h in data set [5] amounted to 134 ± 8.09 µM. Moreover, the “Toxicity in ARPE-19 cells (in words)” value in data set [6] (24 h) is recorded as “slight toxicity”. Moreover, the IC50 in data set [7] (1 h pre-incubation) was 59.4 ± 18.8 µM; in [7] (setting [10]), around 60 µM.
Regarding `CC/C=C\C/C=C\C/C=C\CCCCCCCC(=O)Oc1c(-c2ccc(O)c(O)c2)oc2cc(O)cc(O)c2c1=O` [Quer-3-ALA (14), quercetin-3-ALA], the melting point turned out to be 180 °C. Besides, in data set [5], the CC50 at 24 h stood at 69.4 ± 3.46 µM. In addition, the IC50 in [7] (1 h pre-incubation) came out at 61.7 ± 7.43 µM. Further, in data set [7] (setting [10]), the IC50 is around 60 µM.
In the case of `CCCCC/C=C\C/C=C\CCCCCCCC(=O)O[C@H]1Cc2c(O)cc(O)cc2O[C@@H]1c1ccc(O)c(O)c1` [Cat-3-LA (9), catechin-3-LA], the CC50 at 24 h in [5] was 149 ± 6.61 µM. Besides, the “Concentration from which cytotoxicity on ARPE-19 starts” value in [6] (24 h, MTT) is on record as at least 80 µM. Also, the IC50 in data set [7] (setting [10]) was 10.6 ± 4.41 µM.
With `CCCCC/C=C\C/C=C\CCCCCCCC(=O)Oc1cc(O)cc(O)c1` [Phloro-LA (3), Phloroglucinol-LA], the CC50 at 24 h in [5] is above 160 µM. Moreover, the IC50 in data set [7] (setting [10]) is above 80 µM. In addition, the “ROS scavenging potency relative to natural homologue (phloroglucinol)” value in data set [7] (ratio of ROS IC50) is reported as “nine times less potent”.
With `CCCCC/C=C\C/C=C\CCCCCCCC(=O)Oc1c(-c2ccc(O)c(O)c2)oc2cc(O)cc(O)c2c1=O` [Quer-3-LA (13), quercetin-3-LA], in data set [5], the CC50 at 24 h was above 160 µM. Further, the “Cell survival in cytotoxicity assay” value in [6] (at 80 µM, Figure 8, 100% = non-treated control cells) was found to be 150%. The “Toxicity in ARPE-19 cells (in words)” value in [6] (24 h) is “no toxicity was observed up to 160 µM”. Also, the IC50 in data set [7] (1 h pre-incubation) stood at 52.2 ± 10.8 µM. Further, the IC50 in data set [7] (setting [10]) is around 60 µM. Also, in [8] (Homo sapiens, ARPE-19), the IC50 was found to be 8.24 µM. Moreover, in data set [8], the “Decrease of the toxic effect of A2E” value turned out to be 50%, the “Cells protected from photo-oxidized A2E” value is on record as “up to 90%”, the “Maximum cell viability under photo-oxidized A2E” value was 88–89% and the “Potency against photo-oxidized A2E relative to natural quercetin” value was “three times more potent”.
With `O=c1c(O)c(-c2ccc(O)c(O)c2)oc2cc(O)cc(O)c12` [Quercetin, quercetin, reference compound], the CC50 at 24 h in [5] is 111 ± 4.92 µM. Further, in data set [6] (24 h), the “Toxicity in ARPE-19 cells (in words)” value is given as “moderate toxicity”. Further, the IC50 in data set [7] (setting [10]) turned out to be 6.82 ± 0.73 µM; in data set [8] (Homo sapiens, ARPE-19), 23.9 µM. For the same compound, the viability at 40 µM in [8] (Homo sapiens, ARPE-19, at 40 µM, read-out: Maximum cell viability under photo-oxidized A2E) was determined as 78%.
Compound `CC/C=C\C/C=C\C/C=C\CCCCCCCC(=O)Oc1cc(O)c2c(=O)c(O)c(-c3ccc(O)c(O)c3)oc2c1` [Quer-7-ALA (18), quercetin-7-ALA] had a melting point of 235.8 °C. Further, the CC50 at 24 h in data set [5] is above 160 µM. Further, the viability at 24 h in data set [5] (up to 160 µM, Figure 8, 100% = non-treated control cells) worked out at 128%. For the same compound, the IC50 in data set [7] (setting [10]) was found to be 9.44 ± 2.37 µM. Also, in data set [7] (ratio of ROS IC50), the “ROS scavenging potency relative to analogue 3-ALA” value is on record as 6 times. For the same compound, the IC50 in data set [8] (Homo sapiens, ARPE-19) was found to be 8.45 µM. Further, in data set [8], the “Decrease of the toxic effect of A2E” value is listed as 50%, the “Cells protected from photo-oxidized A2E” value is listed as “up to 90%”, the “Maximum cell viability under photo-oxidized A2E” value is recorded as 88–89% and the “Potency against photo-oxidized A2E relative to natural quercetin” value is “three times more potent”.
Consider `Oc1cc(O)c2c(c1)O[C@H](c1ccc(O)c(O)c1)[C@@H](O)C2` [(+)-catechin, reference compound], for which the CC50 at 24 h in data set [5] was above 160 µM. In addition, the “Toxicity in ARPE-19 cells (in words)” value in data set [6] (24 h) is listed as “no apparent toxicity”. Also, the IC50 in data set [7] (setting [10]) stood at 5.93 ± 0.06 µM.
Regarding `Oc1cc(O)cc(O)c1` [Phloroglucinol, phloroglucinol, reference compound], the CC50 at 24 h in [5] is above 160 µM. Further, in data set [7] (setting [10]), the IC50 was 10.2 ± 3.44 µM.
For `CCCCC/C=C\C/C=C\CCCCCCCC(=O)Oc1ccc(/C=C/c2cc(O)cc(O)c2)cc1` [Resv-4′-LA (8), resveratrol-4′-LA], the CC50 at 24 h in data set [5] was above 160 µM. In data set [7] (setting [10]), the IC50 was above 80 µM. The same compound gave an ROS scavenged in data set [7] (at 80 µM, Figure S1) of 40%.
With `Oc1ccc(C=Cc2cc(O)cc(O)c2)cc1` [Resveratrol, 3,4′,5-trihydroxystilbene, reference compound], the CC50 at 24 h in [5] was above 160 µM. In addition, the IC50 in data set [7] (setting [10]) worked out at 7.4 ± 0.51 µM. Moreover, the “Protection against photo-oxidized A2E (in words, compared with 88–89% cell viability)” value in [9] was “Same level of protection”.
Take `Oc1cc(O)cc(/C=C/c2ccc(O)c(O)c2)c1` [piceatannol]: the “Protection against photo-oxidized A2E (in words, compared with 88–89% cell viability)” value in data set [9] was “Same level of protection”.

Source of the values: article PMC6315395, “New Lipophenol Antioxidants Reduce Oxidative Damage in Retina Pigment Epithelial Cells” (Antioxidants, 2018).
